In ChEMBL document CHEMBL3046121, “Design and synthesis of new N-substituted amino methyl-[1,2,3] triazolyl moieties of fluoroquinolones as antibacterial agents” (2013) one finds MIC data, which are given here for 22 compounds.

≈ marks a conversion by molar mass, not a printed value.

The MIC is the least concentration at which growth counts as inhibited.

Holding throughout (type): functional
Experiment [1] has as its system Staphylococcus aureus. Kind of experiment: Antibacterial activity against Methicillin-resistant Staphylococcus aureus ATCC 33591 assessed as growth inhibition after 24 hr by two-fold serial dilution method. Particulars: ATCC 33591, 24 h.
Experiment [2] has as its system Enterococcus faecalis. Kind of experiment: Antibacterial activity against Vancomycin-resistant Enterococcus faecalis ATCC 700802 assessed as growth inhibition after 24 hr by two-fold serial dilution method. Particulars: ATCC 700802, 24 h.
In experiment [3] the test system is Moraxella catarrhalis. The experiment is described as follows: Antibacterial activity against Moraxella catarrhalis ATCC 25238 assessed as growth inhibition after 24 hr by two-fold serial dilution method. The following applies: ATCC 25238, 24 h.
Experiment [4] deals with Staphylococcus aureus. The experiment is described as follows: Antibacterial activity against methicillin-sensitive Staphylococcus aureus ATCC 29213 assessed as growth inhibition after 24 hr by two-fold serial dilution method. Particulars: ATCC 29213, 24 h.
For experiment [5], the system named is Klebsiella pneumoniae. The experiment is described as follows: Antibacterial activity against clinical Klebsiella pneumoniae AB 356 assessed as growth inhibition after 24 hr by two-fold serial dilution method. Particulars: AB 356, 24 h.
Experiment [6] concerns Acinetobacter baumannii. The experiment is described as follows: Antibacterial activity against Acinetobacter baumannii BAA 747 assessed as growth inhibition after 24 hr by two-fold serial dilution method. The following applies: BAA 747, 24 h.

Turning to `O=C(O)c1cn(C2CC2)c2cc(-n3cc(CNC4CCCCCC4)nn3)c(F)cc2c1=O`, the MIC in experiment [1] was 32 µg/mL (≈ 72.8 µM); in experiment [2] it was 32 µg/mL (≈ 72.8 µM); in experiment [3], 8 µg/mL (≈ 18.2 µM); in experiment [4], 32 µg/mL (≈ 72.8 µM); in experiment [5], 16 µg/mL (≈ 36.4 µM); in experiment [6] it was 16 µg/mL (≈ 36.4 µM).
Regarding `O=C(O)c1cn(C2CC2)c2cc(-n3cc(CNc4ccccc4)nn3)c(F)cc2c1=O`, the minimal inhibitory concentration (MIC) in experiment [1] was 0.5 µg/mL (≈ 1.19 µM); in experiment [2] it was 2 µg/mL (≈ 4.77 µM); in experiment [3], 0.125 µg/mL (≈ 0.298 µM); in experiment [4], 0.25 µg/mL (≈ 0.596 µM); in experiment [5] it was 1 µg/mL (≈ 2.38 µM); in experiment [6] it was 1 µg/mL (≈ 2.38 µM).
`O=C(O)c1cn(C2CC2)c2cc(-n3cc(CNc4ccc(F)cc4)nn3)c(F)cc2c1=O`: the minimum inhibitory concentration (MIC) in experiment [1] turned out to be 1 µg/mL (≈ 2.29 µM); in experiment [2] it was 4 µg/mL (≈ 9.14 µM); in experiment [3] it was 0.25 µg/mL (≈ 0.572 µM); in experiment [4], 0.25 µg/mL (≈ 0.572 µM); in experiment [5], 2 µg/mL (≈ 4.57 µM); in experiment [6], 2 µg/mL (≈ 4.57 µM).
Regarding `O=C(O)c1cn(C2CC2)c2cc(-n3cc(CNc4ccc(Cl)cc4)nn3)c(F)cc2c1=O`, the minimal inhibitory concentration (MIC) was 0.25 µg/mL (≈ 0.551 µM) in experiment [1]; 1 µg/mL (≈ 2.2 µM) in experiment [2]; 0.125 µg/mL (≈ 0.275 µM) in experiment [3]; 0.25 µg/mL (≈ 0.551 µM) in experiment [4]; 1 µg/mL (≈ 2.2 µM) in experiment [5]; 0.5 µg/mL (≈ 1.1 µM) in experiment [6].
For `COc1ccc(NCc2cn(-c3cc4c(cc3F)c(=O)c(C(=O)O)cn4C3CC3)nn2)cc1`, the minimum inhibitory concentration (MIC) was 0.5 µg/mL (≈ 1.11 µM) in experiment [1]; 2 µg/mL (≈ 4.45 µM) in experiment [2]; 0.5 µg/mL (≈ 1.11 µM) in experiment [3]; 0.5 µg/mL (≈ 1.11 µM) in experiment [4]; 4 µg/mL (≈ 8.9 µM) in experiment [5]; 8 µg/mL (≈ 17.8 µM) in experiment [6].
Consider `Cc1ccc(NCc2cn(-c3cc4c(cc3F)c(=O)c(C(=O)O)cn4C3CC3)nn2)cc1`, for which the minimum inhibitory concentration (MIC) in experiment [1] turned out to be 0.5 µg/mL (≈ 1.15 µM); in experiment [2], 2 µg/mL (≈ 4.61 µM); in experiment [3] it was 0.125 µg/mL (≈ 0.288 µM); in experiment [4], 0.5 µg/mL (≈ 1.15 µM); in experiment [5] it was 4 µg/mL (≈ 9.23 µM); in experiment [6], 8 µg/mL (≈ 18.5 µM).
Consider `O=C(O)c1cn(C2CC2)c2cc(-n3cc(CNCc4ccccc4)nn3)c(F)cc2c1=O`, for which the MIC in experiment [1] was 2 µg/mL (≈ 4.61 µM); in experiment [2] it was 4 µg/mL (≈ 9.23 µM); in experiment [3], 1 µg/mL (≈ 2.31 µM); in experiment [4] it was 2 µg/mL (≈ 4.61 µM); in experiment [5], 1 µg/mL (≈ 2.31 µM); in experiment [6], 8 µg/mL (≈ 18.5 µM).
`O=C(O)c1cn(C2CC2)c2cc(-n3cc(CNCc4ccc(F)cc4)nn3)c(F)cc2c1=O`: the MIC was determined as 2 µg/mL (≈ 4.43 µM) in experiment [1]; 4 µg/mL (≈ 8.86 µM) in experiment [2]; 1 µg/mL (≈ 2.22 µM) in experiment [3]; 2 µg/mL (≈ 4.43 µM) in experiment [4]; 2 µg/mL (≈ 4.43 µM) in experiment [5]; 8 µg/mL (≈ 17.7 µM) in experiment [6].
For `O=C(O)c1cn(C2CC2)c2cc(-n3cc(Cn4ccnc4)nn3)c(F)cc2c1=O`, the MIC in experiment [1] was 32 µg/mL (≈ 81.1 µM); in experiment [2] it was 32 µg/mL (≈ 81.1 µM); in experiment [3], 8 µg/mL (≈ 20.3 µM); in experiment [4], 32 µg/mL (≈ 81.1 µM); in experiment [5] it was 32 µg/mL (≈ 81.1 µM); in experiment [6], 32 µg/mL (≈ 81.1 µM).
For the compound `CN(C)Cc1cn(-c2cc3c(cc2F)c(=O)c(C(=O)O)cn3C2CC2)nn1`, the MIC in experiment [1] worked out at 8 µg/mL (≈ 21.5 µM); in experiment [2], 16 µg/mL (≈ 43.1 µM); in experiment [3] it was 1 µg/mL (≈ 2.69 µM); in experiment [4] it was 4 µg/mL (≈ 10.8 µM); in experiment [5], 2 µg/mL (≈ 5.39 µM); in experiment [6], 8 µg/mL (≈ 21.5 µM).
On to `CCN(CC)Cc1cn(-c2cc3c(cc2F)c(=O)c(C(=O)O)cn3C2CC2)nn1`, for which the MIC turned out to be 32 µg/mL (≈ 80.1 µM) in experiment [1]; 32 µg/mL (≈ 80.1 µM) in experiment [2]; 16 µg/mL (≈ 40.1 µM) in experiment [3]; 8 µg/mL (≈ 20 µM) in experiment [4]; 16 µg/mL (≈ 40.1 µM) in experiment [5]; 16 µg/mL (≈ 40.1 µM) in experiment [6].
As to `CCCN(CCC)Cc1cn(-c2cc3c(cc2F)c(=O)c(C(=O)O)cn3C2CC2)nn1`, the MIC in experiment [1] came to 32 µg/mL (≈ 74.9 µM); in experiment [2] it was 32 µg/mL (≈ 74.9 µM); in experiment [3], 2 µg/mL (≈ 4.68 µM); in experiment [4] it was 8 µg/mL (≈ 18.7 µM); in experiment [5], 8 µg/mL (≈ 18.7 µM); in experiment [6], 16 µg/mL (≈ 37.4 µM).
With `O=C(O)c1cn(C2CC2)c2cc(-n3cc(CN4CCCC4)nn3)c(F)cc2c1=O`, the MIC in experiment [1] stood at 8 µg/mL (≈ 20.1 µM); in experiment [2], 16 µg/mL (≈ 40.3 µM); in experiment [3], 1 µg/mL (≈ 2.52 µM); in experiment [4], 2 µg/mL (≈ 5.03 µM); in experiment [5], 2 µg/mL (≈ 5.03 µM); in experiment [6] it was 8 µg/mL (≈ 20.1 µM).
Turning to `O=C(O)c1cn(C2CC2)c2cc(-n3cc(CN4CCCCC4)nn3)c(F)cc2c1=O`, the minimal inhibitory concentration (MIC) was 16 µg/mL (≈ 38.9 µM) in experiment [1]; 16 µg/mL (≈ 38.9 µM) in experiment [2]; 1 µg/mL (≈ 2.43 µM) in experiment [3]; 4 µg/mL (≈ 9.72 µM) in experiment [4]; 2 µg/mL (≈ 4.86 µM) in experiment [5]; 8 µg/mL (≈ 19.4 µM) in experiment [6].
For the compound `O=C(O)c1cn(C2CC2)c2cc(-n3cc(CN4CCOCC4)nn3)c(F)cc2c1=O`, the minimal inhibitory concentration (MIC) in experiment [1] was 16 µg/mL (≈ 38.7 µM); in experiment [2], 16 µg/mL (≈ 38.7 µM); in experiment [3] it was 4 µg/mL (≈ 9.68 µM); in experiment [4], 8 µg/mL (≈ 19.4 µM); in experiment [5] it was 16 µg/mL (≈ 38.7 µM); in experiment [6], 16 µg/mL (≈ 38.7 µM).
Regarding `O=C(O)c1cn(C2CC2)c2cc(-n3cc(CN4CCNCC4)nn3)c(F)cc2c1=O`, the MIC was 16 µg/mL (≈ 38.8 µM) in experiment [1]; 32 µg/mL (≈ 77.6 µM) in experiment [2]; 8 µg/mL (≈ 19.4 µM) in experiment [3]; 16 µg/mL (≈ 38.8 µM) in experiment [4]; 8 µg/mL (≈ 19.4 µM) in experiment [5]; 32 µg/mL (≈ 77.6 µM) in experiment [6].
Consider `CC(C)NCc1cn(-c2cc3c(cc2F)c(=O)c(C(=O)O)cn3C2CC2)nn1`, for which the MIC in experiment [1] amounted to 16 µg/mL (≈ 41.5 µM); in experiment [2] it was 16 µg/mL (≈ 41.5 µM); in experiment [3], 1 µg/mL (≈ 2.59 µM); in experiment [4], 16 µg/mL (≈ 41.5 µM); in experiment [5] it was 4 µg/mL (≈ 10.4 µM); in experiment [6], 16 µg/mL (≈ 41.5 µM).
Consider `O=C(O)c1cn(C2CC2)c2cc(-n3cc(CNC4CC4)nn3)c(F)cc2c1=O`, for which the MIC in experiment [1] amounted to 16 µg/mL (≈ 41.7 µM); in experiment [2], 16 µg/mL (≈ 41.7 µM); in experiment [3], 32 µg/mL (≈ 83.5 µM); in experiment [4] it was 16 µg/mL (≈ 41.7 µM); in experiment [5] it was 32 µg/mL (≈ 83.5 µM); in experiment [6], 32 µg/mL (≈ 83.5 µM).
`O=C(O)c1cn(C2CC2)c2cc(-n3cc(CNC4CCCC4)nn3)c(F)cc2c1=O`: the MIC in experiment [1] was 16 µg/mL (≈ 38.9 µM); in experiment [2], 16 µg/mL (≈ 38.9 µM); in experiment [3], 1 µg/mL (≈ 2.43 µM); in experiment [4], 16 µg/mL (≈ 38.9 µM); in experiment [5], 4 µg/mL (≈ 9.72 µM); in experiment [6], 16 µg/mL (≈ 38.9 µM).
With `O=C(O)c1cn(C2CC2)c2cc(-n3cc(CNC4CCCCC4)nn3)c(F)cc2c1=O`, the minimal inhibitory concentration (MIC) stood at 32 µg/mL (≈ 75.2 µM) in experiment [1]; 32 µg/mL (≈ 75.2 µM) in experiment [2]; 1 µg/mL (≈ 2.35 µM) in experiment [3]; 16 µg/mL (≈ 37.6 µM) in experiment [4]; 2 µg/mL (≈ 4.7 µM) in experiment [5]; 8 µg/mL (≈ 18.8 µM) in experiment [6].
Turning to `O=C(O)c1cn(C2CC2)c2cc(N3CCNCC3)c(F)cc2c1=O` [CIPROFLOXACIN], the minimum inhibitory concentration (MIC) in experiment [1] amounted to 0.5 µg/mL (≈ 1.51 µM); in experiment [2] it was 0.5 µg/mL (≈ 1.51 µM); in experiment [3], 0.25 µg/mL (≈ 0.754 µM); in experiment [4], 0.5 µg/mL (≈ 1.51 µM); in experiment [6], 0.5 µg/mL (≈ 1.51 µM).
In the case of `CC(=O)NC[C@H]1CN(c2ccc(N3CCOCC3)c(F)c2)C(=O)O1` [LINEZOLID], the MIC was 4 µg/mL (≈ 11.9 µM) in experiment [3], over 32 µg/mL in experiment [5] and over 32 µg/mL in experiment [6].
